Columns and labels:
cAMP PDE = test: Phosphodiesterase (PDE) inhibitory activity, cAMP substrate; assay type: biochemical, rat; details: 0.14 μM 14C-labeled cAMP, pH 8.0, 30° C., 20 minutes, crude enzyme from rat brains; read-out: I50 cAMP PDE
Experimental: (§1) The test was carried out following essentially the method of A. L. Pichard and Y. U. Chung [Journal of Biological Chemistry, 251, 5726-5737 (1976)]. A crude enzymatic solution derived from rat brains was used as the source of cAMP PDE.
(§2) ^14 C-labeled cAMP was used as the substrate. It was employed in a 0.2M Tris-hydrochloric acid buffer solution (pH 8.0) in an amount sufficient to provide a final concentration of 0.14 μM. "Tris" is tris(hydroxymethyl)aminomethane. The substrate solution was mixed with an appropriate amount of the compound under test dissolved in 2-5 μl of dimethyl sulfoxide and with 20 μl of a snake venom solution and 40 μl of the crude enzyme solution. Sufficient Tris-hydrochloric acid buffer was added to make a total volume of 100 μl. The mixture was allowed to react at 30° C. for 20 minutes. At the end of this time, the reaction mixture was treated with an Amberlite (trade mark) IRP-58 resin and the level of residual adenosine radioactivity in the product was determined.

cGMP PDE = test: Phosphodiesterase (PDE) inhibitory activity, cGMP substrate; assay type: biochemical; details: cGMP as substrate, crude enzyme from rat brains; read-out: I50 cGMP PDE
Experimental: as §1, §2
The experiment was repeated, except that cyclic guanosine monophosphate (cGMP) was employed as the substrate instead of cAMP. The I50 value against cGMP PDE was also calculated.

cerebral blood flow = test: Improving cerebral blood flow; assay type: in vivo, rabbit
Excerpt: The "duration (T1/2)" is the time in minutes required for the increase in cerebral blood flow to reduce by one half.

Compound | IC50 (cAMP PDE) [µM] | IC50 (cGMP PDE) [µM] | other results
COc1ncnc2c1ncn2C1OC2=CC(C(=O)O)([C@@H](O)C(=O)O)OC2[C@H]1O (some centres unmarked) [Compound No. 124, 6-desamino-6-methoxygriseolic acid] | 10 | 4.9 | 
Nc1ncnc2c1ncn2C1OC2=CC(C(=O)O)([C@H](Br)C(=O)O)OC2[C@H]1O (stereo partly drawn) [Compound No. 137, 7'(S)-bromo-7'-deoxygriseolic acid] | 3.4 | 19 | 
[N-]=[N+]=N[C@H](C(=O)O)C1(C(=O)O)C=C2OC(n3cnc4c(N)ncnc43)[C@H](O)C2O1 (some centres unmarked) [Compound No. 81, 7'-azido-7'-deoxygriseolic acid] | 4.4 | 13 | 
COc1ccc(Cc2nccc3cc(OC)c(OC)cc23)cc1OC [Papaverine, papaverine, reference compound] |  |  | Change in blood pressure (pascals) (cerebral blood flow; 1 mg/kg): -1040 pascals; Change in blood pressure mm Hg (cerebral blood flow; 1 mg/kg): -7.8 mm Hg
Nc1ncnc2c1nc(S)n2C1OC2=CC(C(=O)O)([C@@H](O)C(=O)O)OC2[C@H]1O (some centres unmarked) [Compound No. 192, 8-mercaptogriseolic acid] | 30.4 | 49.8 | 
Cn1c(=O)c2[nH]cnc2n(C)c1=O [theophylline, reference compound] | 360 | 196 | 
CNc1ncnc2c1ncn2C1OC2=CC(C(=O)O)([C@@H](O)C(=O)O)OC2[C@H]1O (some centres unmarked) [Compound No. 58, N^6 -methylgriseolic acid] | 2 | 14 | 
Nc1ncnc2c1ncn2C1OC2=CC(C(=O)O)(C(Cl)C(=O)O)OC2[C@H]1O (some centres unmarked) [Compound No. 88, 7'-chloro-7'-deoxygriseolic acid] | 1.5 | 14.8 | 
Nc1ncnc2c1ncn2C1CC2OC(C(=O)O)([C@@H](O)C(=O)O)C=C2O1 (some centres unmarked) [Compound No. 144, 2'-deoxygriseolic acid] | 0.19 | 1.1 | 
CC[C@]12CCCN3CCc4c(n(c5ccccc45)[C@@](O)(C(=O)OC)C1)[C@@H]32 [Vincamine, reference compound] |  |  | Duration (T 1/2) (cerebral blood flow; 1 mg/kg): 3.2 min; Increase in cerebral blood flow (Vp), ratio to papaverine 1 mg/kg (cerebral blood flow; 1 mg/kg): 1.7; Duration (T 1/2) (cerebral blood flow; 2.5 mg/kg): 2.1 min; Increase in cerebral blood flow (Vp), ratio to papaverine 1 mg/kg (cerebral blood flow; 2.5 mg/kg): 3.2
O=C(O)C(O)C1(C(=O)O)C=C2OC(n3c(Br)nc4c(=O)[nH]cnc43)C(O)C2O1 (centres unmarked) [Compound No. 197, 8-bromo-6-desamino-6-hydroxygriseolic acid] | 25 | 13.1 | 
N=c1c2ncn(C3OC4=CC(C(=O)O)([C@@H](O)C(=O)O)OC4[C@H]3O)c2ncn1Cc1ccccc1 (some centres unmarked) [Compound No. 45, N^1 -benzylgriseolic acid] | 0.6 | 1.2 | 
Nc1ncnc2c1ncn2C1OC2=CC(C(=O)O)([C@@H](O)C(=O)O)OC2[C@H]1OC(=O)c1ccccc1 (some centres unmarked) [Compound No. 36, O^2' -benzoylgriseolic acid] | 6.8 | 48 | 
[N-]=[N+]=N[C@H]1C2OC(C(=O)O)([C@@H](O)C(=O)O)C=C2OC1n1cnc2c(N)ncnc21 (stereo partly drawn) [Compound No. 247, 2'(S)-azido-2'-deoxygriseolic acid] | 0.45 | 6.4 | 
O=C(O)[C@H](O)C1(C(=O)O)C=C2OC(n3cnc4cncnc43)[C@H](O)C2O1 (some centres unmarked) [Compound No. 53, 6-desamino-6-hydrogriseolic acid] | 14 | 1.2 | 
Nc1ncnc2c1ncn2C1OC2=CC(C(=O)O)([C@@H](O)C(=O)O)OC2[C@@H]1Br (stereo partly drawn) [Compound No. 143, 2'(S)-bromo-2'-deoxygriseolic acid] | 0.09 | 4.1 | 
O=C(O)C(O)C1(C(=O)O)C=C2OC(n3cnc4c(=O)[nH]cnc43)C(O)C2O1 (centres unmarked) [Compound No. 51, 6-desamino-6-hydroxygriseolic acid] | 0.32 | 0.13 | 

Compound | IC50 (cAMP PDE) [µM] | IC50 (cGMP PDE) [µM] | other results
CN(C)c1ncnc2c1ncn2C1OC2=CC(C(=O)O)([C@@H](O)C(=O)O)OC2[C@H]1O (some centres unmarked) [Compound No. 59, N^6 -dimethylgriseolic acid] | 31 | 39 | 
Nc1ncnc2c1ncn2C1OC2=CC(C(=O)O)([C@@H](OC(=O)c3ccccc3)C(=O)O)OC2[C@H]1OC(=O)c1ccccc1 (some centres unmarked) [Compound No. 40, O^2',O^7' -dibenzoylgriseolic acid] | 3.2 | 90 | 
Nc1ncnc2c1ncn2C1OC2=CC(C(=O)O)([C@@H](O)C(=O)O)OC2[C@@H]1Cl (stereo partly drawn) [Compound No. 142, 2'(S)-chloro-2'-deoxygriseolic acid] | 0.15 | 2.5 | 
Nc1ncnc2c1ncn2C1OC2=CC(C(=O)O)([C@@H](O)C(=O)O)OC2[C@@H]1I (stereo partly drawn) [Compound No. 249, 2'-deoxy-2'(S)-iodogriseolic acid] | 0.44 | 2.8 | 
CC(=O)O[C@@H]1C2OC(C(=O)O)([C@@H](OC(C)=O)C(=O)O)C=C2OC1n1cnc2c(N)ncnc21 (some centres unmarked) [Compound No. 41, O^2',O^7' -diacetylgriseolic acid] | 9.3 | 243 | 
NNc1ncnc2c1ncn2C1OC2=CC(C(=O)O)([C@@H](O)C(=O)O)OC2[C@H]1O (some centres unmarked) [Compound No. 60, 6-desamino-6-hydrazinogriseolic acid] | 5.4 | 4.8 | 
Nc1ncnc2c1nc(Br)n2C1OC2=CC(C(=O)O)([C@@H](O)C(=O)O)OC2[C@H]1O (some centres unmarked) [Compound No. 196, 8-bromogriseolic acid] | 2.5 | 1.7 | 
COc1nc2c(N)ncnc2n1C1OC2=CC(C(=O)O)([C@@H](O)C(=O)O)OC2[C@H]1O (some centres unmarked) [Compound No. 195, 8-methoxygriseolic acid] | 3.9 | 3.2 | 
CC(=O)O[C@@H](C(=O)O)C1(C(=O)O)C=C2OC(n3cnc4c(=N)n(Cc5ccccc5)cnc43)[C@H](O)C2O1 (some centres unmarked) [Compound No. 46, O^7' -acetyl-N^1 -benzylgriseolic acid] | 1.8 | 0.9 | 
Nc1ncnc2c1nc(Br)n2C1OC23OC(C(=O)O)C(C(=O)O)(OC2[C@H]1O)C3Br (stereo partly drawn) [Compound No. 187, 4',7'-anhydro-5',α,8-dibromo-4'α-hydroxygriseolic acid] | 35 | 32 | 
Nc1ncnc2c1ncn2C1OC2=CC(C(=O)O)([C@@H](OC(=O)c3ccccc3)C(=O)O)OC2[C@H]1O (some centres unmarked) [Compound No. 37, O^7' -benzoylgriseolic acid] | 0.31 | 2.9 | 
Nc1ncnc2c1ncn2C1OC2=CC(C(=O)O)([C@H](O)C(=O)O)OC2[C@H]1O (stereo partly drawn) [Compound No. 140, 7'-deoxy-7'(S)-hydroxygriseolic acid] | 0.76 | 2.8 | 
O=C(O)[C@H](O)C1(C(=O)O)C=C2OC(n3cnc4c(NCc5ccccc5)ncnc43)[C@H](O)C2O1 (some centres unmarked) [Compound No. 63, N^6 -benzylgriseolic acid] | 7.4 | 9.7 | 
O=C(Nc1ncnc2c1ncn2C1OC2=CC(C(=O)O)([C@@H](OC(=O)c3ccccc3)C(=O)O)OC2[C@H]1O)c1ccccc1 (some centres unmarked) [Compound No. 39, N^6,O^7' -dibenzoylgriseolic acid] | 33 | 111 | 
Nc1ncnc2c1ncn2C1OC2=CC(C(=O)O)([C@@H](O)C(=O)O)OC2[C@@H]1N (stereo partly drawn) [Compound No. 248, 2'(S)-amino-2'-deoxygriseolic acid] | 3.2 | 12.7 | 
Nc1ncnc2c1ncn2C1OC2=CC(C(=O)O)([C@H](N)C(=O)O)OC2[C@H]1O (stereo partly drawn) [Compound No. 135, 7'(S)-amino-7'-deoxygriseolic acid] | 2 | 4.2 | 

— patent US4634706A, “Griseolic acid derivatives, and their use as enzyme inhibitors” (Sankyo Company Limited, priority 1983, dated 1987)
